The source made the active and inactive calls. The calls are words filed in the database; no cut-off is given here.
Legend:
[1] = system: Digitaria; assay: Post-emergence herbicidal activity against one-leaf stage of Digitaria adscendens under greenhouse condition at 750 g /ha measured after 24 days by spray method; assay type: functional; settings: in Digitaria adscendens, 576 h, read-out: GI
[2] = system: Echinochloa crus-galli; assay: Post-emergence herbicidal activity against one-leaf stage of Echinochloa crus-galli (barnyard grass) under greenhouse condition at 750 g /ha measured after 24 days by spray method; assay type: functional; settings: 576 h, read-out: GI
[3] = system: Amaranthus retroflexus; assay: Post-emergence herbicidal activity against one-leaf stage of Amaranthus retroflexus under greenhouse condition at 750 g /ha measured after 24 days by spray method; assay type: functional; settings: 576 h, read-out: GI
[4] = system: Brassica rapa subsp. oleifera; assay: Post-emergence herbicidal activity against one-leaf stage Brassica rapa subsp. oleifera under greenhouse condition at 750 g /ha measured after 24 days by spray method; assay type: functional; settings: 576 h, read-out: GI
[5] = system: Digitaria; assay: Pre-emergence herbicidal activity against Digitaria adscendens under greenhouse condition at 750 g /ha measured after 24 days by spray method; assay type: functional; settings: in Digitaria adscendens, 576 h, read-out: GI
[6] = system: Echinochloa crus-galli; assay: Pre-emergence herbicidal activity against Echinochloa crus-galli (barnyard grass) under greenhouse condition at 750 g /ha measured after 24 days by spray method; assay type: functional; settings: 576 h, read-out: GI
[7] = system: Amaranthus retroflexus; assay: Pre-emergence herbicidal activity against Amaranthus retroflexus under greenhouse condition at 750 g /ha measured after 24 days by spray method; assay type: functional; settings: 576 h, read-out: GI
[8] = system: Brassica rapa subsp. oleifera; assay: Pre-emergence herbicidal activity against Brassica rapa subsp. oleifera under greenhouse condition at 750 g /ha measured after 24 days by spray method; assay type: functional; settings: 576 h, read-out: GI
[9] = system: Spirodela polyrhiza; assay: Bleaching herbicidal activity in Spirodela polyrhiza fronds cultured in compound-containing in medium assessed as chlorophyll inhibition at 1 ug/ml after 7 days; assay type: functional; settings: 168 h
[10] = system: Spirodela polyrhiza; assay: Bleaching herbicidal activity in Spirodela polyrhiza fronds cultured in compound-containing in medium assessed as chlorophyll inhibition at 10 ug/ml after 7 days; assay type: functional; settings: 168 h
[11] = system: Brassica rapa subsp. oleifera; assay: Post-emergence herbicidal activity against one-leaf stage Brassica rapa subsp. oleifera under greenhouse condition assessed as complete bleaching of leaves at 600 g /ha measured after 24 days by spray method; assay type: functional, organism-based
[12] = system: Brassica rapa subsp. oleifera; assay: Post-emergence herbicidal activity against one-leaf stage Brassica rapa subsp. oleifera under greenhouse condition at 150 g /ha measured after 24 days by spray method; assay type: functional; settings: 576 h, read-out: GI
[13] = system: Brassica rapa subsp. oleifera; assay: Post-emergence herbicidal activity against one-leaf stage Brassica rapa subsp. oleifera under greenhouse condition at 300 g /ha measured after 24 days by spray method; assay type: functional; settings: 576 h, read-out: GI
[14] = system: Brassica rapa subsp. oleifera; assay: Post-emergence herbicidal activity against one-leaf stage Brassica rapa subsp. oleifera under greenhouse condition at 600 g /ha measured after 24 days by spray method; assay type: functional; settings: 576 h, read-out: GI
[15] = system: Brassica rapa subsp. oleifera; assay: Post-emergence herbicidal activity against one-leaf stage Brassica rapa subsp. oleifera under greenhouse condition assessed as complete bleaching of leaves at 150 g /ha measured after 24 days by spray method; assay type: functional, organism-based
[16] = system: Brassica rapa subsp. oleifera; assay: Post-emergence herbicidal activity against one-leaf stage Brassica rapa subsp. oleifera under greenhouse condition assessed as complete bleaching of leaves at 300 g /ha measured after 24 days by spray method; assay type: functional, organism-based

Structure (SMILES) | inhibition of growth at 750 g/ha [1] | inhibition of growth at 750 g/ha [2] | inhibition of growth at 750 g/ha [3] | inhibition of growth at 750 g/ha [4] | inhibition of growth at 750 g/ha [5] | inhibition of growth at 750 g/ha [6] | inhibition of growth at 750 g/ha [7] | inhibition of growth at 750 g/ha [8] | inhibition at 1 µg/mL [9] | inhibition at 10 µg/mL [10] | Activity [11] | inhibition of growth at 150 g/ha [12] | inhibition of growth at 300 g/ha [13] | inhibition of growth at 600 g/ha [14] | Activity [15] | Activity [16]
Cc1cccc(COc2nnc(C)cc2-c2cccc(C(F)(F)F)c2)c1 | 0% | 0% | 22% | 13% | 0% | 10% | 0% | 0% | 43% | 46% | – | – | – | – | – | –
Cc1cc(-c2cccc(C(F)(F)F)c2)c(OCc2ccc(Br)cc2)nn1 | 0% | 15% | 23% | 20% | 0% | 4% | 0% | 0% | 14% | 27% | – | – | – | – | – | –
Cc1cc(-c2cccc(C(F)(F)F)c2)c(OCc2ccccc2Cl)nn1 | 26% | 16% | 47% | 90% | 26% | 0% | 40% | 52% | 59% | 93% | Active | 57% | 96% | 97% | Active | Active
Cc1cc(-c2cccc(C(F)(F)F)c2)c(OCc2ccccc2)nn1 | 0% | 29% | 50% | 94% | 7% | 27% | 38% | 55% | 62% | 82% | Active | 62% | 86% | 92% | Active | Active
Cc1cc(-c2cccc(C(F)(F)F)c2)c(OCc2cccc(Br)c2)nn1 | 3% | 4% | 39% | 65% | 0% | 7% | 0% | 0% | 66% | 83% | – | – | – | – | – | –
Cc1cc(-c2cccc(C(F)(F)F)c2)c(OCc2ccccc2Br)nn1 | 3% | 0% | 54% | 91% | 25% | 1% | 21% | 8% | 93% | 100% | Active | 49% | 73% | 85% | Active | Active

— ChEMBL document CHEMBL3045111, “Synthesis and herbicidal activities of novel 3-(substituted benzyloxy or phenoxy)-6-methyl-4-(3-trifluoromethylphenyl)pyridazine derivatives” (2012)
